Data set [1] relates to streptozotocin-diabetic Brown-Norway rats. Nature of the data set: Retinal vascular leakage (Evans Blue dye) after eye drops in streptozotocin-diabetic Brown-Norway rats. It is filed as in vivo, rat. The source says: Administration of streptozotocin to rodents produces a massive destruction of pancreatic β-cells, and thus, triggers marked elevation of glycemia and development of a diabetic state which, in part, mimics early stages of type 1 diabetes. In this regard, streptozotocin-treated rats develop an inflammatory retinopathy featured by rupture of the blood-retinal barrier, increase of inflammatory mediators, cytokines and growth factors (VEGF, basic fibroblast growth factor), microglial cell activation and leukostasis.
Male Brown-Norway or Wistar rats were made diabetic by […] of 65 mg/kg intraperitoneal streptozotocin. Rats with a glycemia<350 mg/dl were discarded from the study. […] On day 15, retinal vascular leakage was determined by measurement of retinal content of Evans Blue dye.
Recombinant tissue kallikrein binding protein (rKBP) was used as a reference drug and was given intravitreally 48 hours before vascular leakage measurement. Values are means ±standard error mean of 12 eyes/group (6 rats). *** means that P<0.001 in a Student's t-test.
The route by which the phosphate salt of compound n° 49 reaches the retina following topical instillation was investigated to determine whether it is mainly by systemic circulation or by the trans- and/or peri-ocular pathway.

Data set [2] relates to leukocyte adhesion to the retinal vasculature. Nature of the data set: Leukocyte adhesion to the retinal vasculature of streptozotocin-diabetic Wistar rats. In kind it is in vivo, rat. To be noted: phosphate salt, 1% eye drop twice-a-day for 7 days; P<0.05.
The nature of data set [3]: Ocular distribution study in albino and pigmented rabbits (14C-compound, single ocular administration). In kind it is in vivo, rabbit. From the text: Further, an ocular distribution study in albino and pigmented rabbits has been performed.
Data set [4] concerns mRNA of cytokines, vasoactive mediators and growth factors in retina. Nature of the data set: Expression of mRNA of cytokines, vasoactive mediators and growth factors in retina of diabetic Wistar rats. In kind it is in vivo, rat. The note with it: 1% eye drops for 7 days, phosphate salt.
For data set [5] the test system is unchanged. The data set is described as above. The note with it: 1% eye drops for 7 days, phosphate salt. In kind it is in vivo, rat. From the text: Expression of mRNA of B1R, B2R, i-NOS, e-NOS, COX-2, ICAM-1, VEGF-R2, VEGF-a, IL-1β and HIF-1α was increased in diabetic rat retina compared to control by 7.5-fold (P<0.05), 5.5, 15- (P<0.01), 6.5- , 8- (P<0.05), 8- , 5- (P<0.05), 12-, 6.5- (P<0.01) and 7-fold (P<0.05), respectively. Expression of TNF-α mRNA remained unchanged.
This is another data set of the same source.

Data set [6] relates to STZ diabetic Brown-Norway rats. The note with it: intravitreal route, positive reference drug; cited from earlier work.
Setting [7] is: single ocular 30 μl of 2% (base equivalent) 14C formulation.

The values that follow come from patent US20130253027A1, “DOSAGES OF ARYLSULFONAMIDE DERIVATIVES” (FOVEA PHARMACEUTICALS, priority 2010, published 2013).

Where “and” joins values, the source holds several entries; their conditions need not be identical. Identical values can stand only once.

Take `COc1cc(C)c(S(=O)(=O)N(C)CCOCC(=O)N(C)Cc2ccc(C3=NCCN3)cc2)c(C)c1` [compound n° 49]: the “reduction of retinal edema, maximum” value in data set [1] (1% eye drops, two separate preliminary studies (data not shown)) was 58% and 63%. Further, in data set [1] (3% phosphate salt in a single eye for 7 days), the “reduction of retinal vascular permeability, treated eye” value worked out at 37%. For the same molecule, the “reduction of retinal oedema, maximum” value in data set [1] (phosphate salt, eye drop (10 μl) 0.1-3% twice daily for 7 days, dose-dependent) was determined as 55%. Also, in data set [1] (test not specified), the “activity of phosphate salt form compared to fumarate salt” value is “equivalent activity”. Moreover, the “leukostasis (number of leukocytes in retinal vessels)” value in data set [2] is reported as “significantly blunted”. Moreover, the Cmax in plasma in data set [3] (albino and pigmented rabbits (similar profiles), single ocular 30 μl of 2%) was determined as 88 ng/mL. In addition, in data set [3] (setting [7]), the “AUC 0-48 in aqueous, retina, choroids, whole blood and plasma, pigmented rabbit higher than albino” value was “at least 2 fold”; the “Cmax, pigmented rabbit lower than albino” value is given as “at least 2 fold”; the “t½ in vitreous, retina and choroids, pigmented rabbit higher than albino” value was “at least 2 fold”. Also, the “mRNA expression of IL-1α in retina” value in data set [4] is “down-regulated to control level”. Also, in data set [5], the “mRNA expression of B1R in retina” value was “down-regulated to control level”, the “mRNA expression of B2R in retina” value is on record as “down-regulated to control level”, the “mRNA expression of COX-2 in retina” value is listed as “down-regulated to control level” and the “mRNA expression of HIF-1α in retina” value was “down-regulated to control level”. Further, in data set [5], the “mRNA expression of ICAM-1 in retina” value was “down-regulated to control level”, the “mRNA expression of VEGF-A in retina (first mention in list)” value is “down-regulated to control level”, the “mRNA expression of e-NOS in retina” value was “down-regulated to control level” and the “mRNA expression of i-NOS in retina” value is listed as “down-regulated to control level”. The “reduction of expression of VEGF-A mRNA in retina” value in data set [5] is 50%.

B1: rKBP: Recombinant tissue kallikrein binding protein, reference drug given intravitreally (protein, UniProt P29622 21-427, looked up)
Kallistatin: QLHVEHDGESCSNSSHQQILETGEGSPSLKIAPANADFAFRFYYLIASETPGKNIFFSPLSISAAYAMLSLGACSHSRSQILEGLGFNLTELSESDVHRGFQHLLHTLNLPGHGLETRVGSALFLSHNLKFLAKFLNDTMAVYEAKLFHTNFYDTVGTIQLINDHVKKETRGKIVDLVSELKKDVLMVLVNYIYFKALWEKPFISSRTTPKDFYVDENTTVRVPMMLQDQEHHWYLHDRYLPCSVLRMDYKGDATVFFILPNQGKMREIEEVLTPEMLMRWNNLLRKRNFYKKLELHLPKFSISGSYVLDQILPRLGFTDLFSKWADLSGITKQQKLEASKSFHKATLDVDEAGTEAAAATSFAIKFFSAQTNRHILRFNRPFLVVIFSTSTQSVLFLGKVVDPTKP
Consider B1, for which, in data set [6], the “reduction of retinal vascular leakage” value is recorded as “approximately 50%”.
